# Experiments:
# [1] = target: human soluble guanylate cyclase alpha 1 and beta 1 subunits (sGC) (Homo sapiens (Human), UniProt Q02108+Q02153); assay: sGC cellular activator assay (cGMP, HTRF), in the presence and absence of 50% human serum; type: cell-based; conditions: CHO cells stably expressing human sGC alpha 1/beta 1, preincubated with 40 microM ODQ; cGMP by HTRF; Table 2 does not state whether with or without 50% human serum
# How it was run: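 First, CHO-sGC (human α1β1) cells get 1 h ODQ at 40 microM with IBMX and 0.1% BSA. Finally, cGMP is quantified by HTRF and EC50 computed.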
# [2] = Human liver microsome (HLM) metabolic stability assay; type: in vitro ADME; conditions: human liver microsomes
# How it was run: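 Remaining parent measured by LC/MS/MS (ESI, MRM) at 5, 15, 30 and 60 min relative to 0 min. Incubation: 1 uM compound, HLMs, NADPH-started, 37° C., 60 min total, single replicate. Slope of ln(% remaining) gives t1/2 = 0.693/slope, then CLint, CLh and % Qh.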
# physchem = conditions: kinetic from dmso stock
# [3] = pH 2.2, aqueous buffer, Solubility (pH 2.2)
# [4] = pH 4.5, aqueous buffer, Solubility (pH 4.5)
# [5] = pH 6.8, aqueous buffer, Solubility (pH 6.8)
# Sequence of human soluble guanylate cyclase alpha 1 and beta 1 subunits (sGC) (Q02108 whole entry partner): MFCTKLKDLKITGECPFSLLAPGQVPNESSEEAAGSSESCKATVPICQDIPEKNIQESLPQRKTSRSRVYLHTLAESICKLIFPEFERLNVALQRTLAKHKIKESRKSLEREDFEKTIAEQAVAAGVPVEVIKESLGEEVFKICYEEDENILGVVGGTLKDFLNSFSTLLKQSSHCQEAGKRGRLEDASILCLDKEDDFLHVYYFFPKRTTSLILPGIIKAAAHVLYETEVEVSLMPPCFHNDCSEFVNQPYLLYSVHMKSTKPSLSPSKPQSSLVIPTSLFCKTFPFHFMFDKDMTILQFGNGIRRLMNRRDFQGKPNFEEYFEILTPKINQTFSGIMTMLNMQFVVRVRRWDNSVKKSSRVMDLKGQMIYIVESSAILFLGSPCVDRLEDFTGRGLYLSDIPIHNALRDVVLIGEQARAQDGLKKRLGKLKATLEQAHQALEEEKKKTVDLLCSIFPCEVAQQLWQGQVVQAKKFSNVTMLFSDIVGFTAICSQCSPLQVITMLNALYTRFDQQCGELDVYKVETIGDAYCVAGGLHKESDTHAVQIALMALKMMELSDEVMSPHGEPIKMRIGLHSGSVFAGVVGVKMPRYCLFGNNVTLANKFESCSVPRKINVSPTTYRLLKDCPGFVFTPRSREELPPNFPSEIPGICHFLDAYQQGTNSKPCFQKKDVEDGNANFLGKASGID
# Sequence of human soluble guanylate cyclase alpha 1 and beta 1 subunits (sGC) (Q02153 whole entry): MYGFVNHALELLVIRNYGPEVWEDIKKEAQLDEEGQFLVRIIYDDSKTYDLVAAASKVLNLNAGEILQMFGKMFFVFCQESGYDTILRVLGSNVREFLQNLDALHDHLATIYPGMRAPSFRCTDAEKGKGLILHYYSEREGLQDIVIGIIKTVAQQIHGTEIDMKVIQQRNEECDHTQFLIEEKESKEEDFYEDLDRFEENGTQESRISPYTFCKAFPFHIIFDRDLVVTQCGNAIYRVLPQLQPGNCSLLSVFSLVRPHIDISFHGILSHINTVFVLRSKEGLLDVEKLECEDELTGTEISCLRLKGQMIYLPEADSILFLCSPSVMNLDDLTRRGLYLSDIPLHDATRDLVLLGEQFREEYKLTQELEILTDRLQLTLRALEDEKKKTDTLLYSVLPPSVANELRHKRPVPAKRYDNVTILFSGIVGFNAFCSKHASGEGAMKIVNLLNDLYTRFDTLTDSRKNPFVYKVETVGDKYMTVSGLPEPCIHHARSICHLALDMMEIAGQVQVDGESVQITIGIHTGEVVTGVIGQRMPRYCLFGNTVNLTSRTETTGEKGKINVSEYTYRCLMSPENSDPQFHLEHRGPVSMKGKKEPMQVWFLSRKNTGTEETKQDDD
SMILES,EC50 [1],"Metabolic stability (Qh %), % hepatic blood flow [2]",solubility at 24 h (physchem; [3]),solubility at 24 h (physchem; [4]),solubility at 24 h (physchem; [5])
Cc1ccc(OCc2ccc3c(c2)CCN(C2COC2)CC3)c(-c2csc(N3C[C@@H]4C[C@]4(C(=O)O)C3)n2)c1 [Compound 148],67 nM,<24%,93 µg/mL,8.4 µg/mL,1.1 µg/mL
Cc1ccc(OCc2ccc3c(c2C)CCN(C2COC2)CC3)c(-c2csc(N3C[C@@H]4C[C@]4(C(=O)O)C3)n2)c1 [Compound 149],34 nM,<24%,98 µg/mL,37 µg/mL,35 µg/mL
Cc1ccc(OCc2ccc3c(c2C)CCN(C2CCOCC2)CC3)c(-c2csc(N3C[C@@H]4C[C@]4(C(=O)O)C3)n2)c1 [Compound 150],24 nM,<24%,100 µg/mL,44 µg/mL,9.7 µg/mL
Cc1cc(C)c(OCc2ccc3c(c2)CCN(C2CCOCC2)C3)c(-c2csc(N3C[C@@H]4C[C@]4(C(=O)O)C3)n2)c1 [Compound 151],135 nM,<24%,110 µg/mL,71 µg/mL,54 µg/mL
Cc1cc(C)c(OCc2ccc3c(c2C)CCN(C2CCOCC2)C3)c(-c2csc(N3C[C@@H]4C[C@]4(C(=O)O)C3)n2)c1 [Compound 152],71 nM,<24%,110 µg/mL,70 µg/mL,53 µg/mL
Cc1ccc(OCc2ccc3c(c2)CCN(C2CCOCC2)C3)c(-c2csc(N3C[C@@H]4C[C@]4(C(=O)O)[C@H]3C)n2)c1 [Compound 153],14 nM,<24%,120 µg/mL,72 µg/mL,47 µg/mL
Cc1ccc(OCc2ccc3c(c2C)CCN(C2CCOCC2)C3)c(-c2csc(N3C[C@@H]4C[C@]4(C(=O)O)[C@H]3C)n2)c1 [Compound 154],4 nM,<24%,110 µg/mL,65 µg/mL,25 µg/mL
Cc1cccc(-c2csc(N3C[C@H]4C[C@@]4(C(=O)O)[C@@H]3C)n2)c1OCc1ccc2c(c1C)CCN(C1CCOCC1)C2 [Compound 155],46 nM,<24%,96 µg/mL,69 µg/mL,61 µg/mL
Cc1cccc(-c2csc(N3C[C@H]4C[C@@]4(C(=O)O)[C@@H]3C)n2)c1OCc1ccc2c(c1C)CCN(C1COC1)C2 [Compound 156],387 nM,<24%,> 140 µg/mL,0.5 µg/mL,8.9 µg/mL
Cc1cc(COc2c(C)cccc2-c2csc(N3C[C@H]4C[C@@]4(C(=O)O)[C@@H]3C)n2)cc2c1CN(C1CCOCC1)CC2 [Compound 157],28 nM,<24%,97 µg/mL,72 µg/mL,63 µg/mL
Cc1cc(COc2c(C)cccc2-c2csc(N3C[C@H]4C[C@@]4(C(=O)O)[C@@H]3C)n2)cc2c1CN(C1COC1)CC2 [Compound 158],37 nM,<24%,94 µg/mL,53 µg/mL,65 µg/mL
COC[C@H]1N(c2nc(-c3cccc(C)c3OCc3ccc4c(c3C)CCN(C3CCOCC3)C4)cs2)C[C@@H]2C[C@@]21C(=O)O [Compound 159],44 nM,30%,120 µg/mL,95 µg/mL,89 µg/mL
COC[C@H]1N(c2nc(-c3cccc(C)c3OCc3ccc4c(c3C)CCN(C3CCC3)C4)cs2)C[C@@H]2C[C@@]21C(=O)O [Compound 160],105 nM,38%,120 µg/mL,< 0.1 µg/mL,75 µg/mL
COC[C@H]1N(c2nc(-c3cccc(C)c3OCc3cc(C)c4c(c3)CCN(C3COC3)C4)cs2)C[C@@H]2C[C@@]21C(=O)O [Compound 161],7 nM,<24%,110 µg/mL,62 µg/mL,76 µg/mL
COC[C@H]1N(c2nc(-c3cccc(C)c3OCc3cc(C)c4c(c3)CCN(C3CCOCC3)C4)cs2)C[C@@H]2C[C@@]21C(=O)O [Compound 162],4 nM,39%,120 µg/mL,82 µg/mL,75 µg/mL
